The IC50 is the midpoint of a concentration-inhibition curve. Low values mean higher potency, high ones lower potency.

Chain of hMCH-1R (Q99705 whole entry): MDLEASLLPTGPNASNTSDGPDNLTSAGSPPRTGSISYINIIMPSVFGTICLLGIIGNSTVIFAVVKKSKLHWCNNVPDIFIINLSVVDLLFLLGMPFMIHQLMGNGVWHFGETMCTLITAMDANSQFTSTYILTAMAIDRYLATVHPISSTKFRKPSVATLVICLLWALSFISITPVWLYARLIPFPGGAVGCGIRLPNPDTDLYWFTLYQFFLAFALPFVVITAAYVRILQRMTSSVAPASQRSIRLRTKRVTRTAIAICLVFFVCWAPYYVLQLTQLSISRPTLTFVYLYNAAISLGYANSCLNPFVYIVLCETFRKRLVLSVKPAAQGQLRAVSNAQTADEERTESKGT

This test addresses hMCH-1R (Homo sapiens (Human), UniProt Q99705). Description: MCH-1 receptor binding test (125I-MCH binding to hMCH-1R transfected cell membranes). To be noted: competition with 100 pM 125I-MCH, membranes of CHO/Galpha16 cells stably transfected with hMCH-1R. The procedure: Res Commun. […] After the incubation the reaction is filtered using a cell harvester through 0.5% PEI treated fibreglass filters (GF/B, Unifilter Packard). The membrane-bound radioactivity retained on the filter is then determined after the addition of scintillator substance (Packard Microscint 20) in a measuring device (TopCount of Packard). […] The analysis of the concentration binding curve is carried out on the assumption of one receptor binding site.
For the molecule `Cc1cc(CN2CCCC2)ccc1C(=O)Cn1ncc(OCc2ccc(F)cn2)cc1=O` [Example 6.1, 5-(5-Fluoro-pyridin-2-ylmethoxy)-2-[2-(2-methyl-4-pyrrolidin-1-ylmethyl-phenyl)-2-oxo-ethyl]-2H-pyridazin-3-one], the half-inhibitory concentration (IC50) was found to be 38 nM. On to `Cc1cc(CN2CCCCC2)ccc1C(=O)Cn1ccc(OCc2ccccc2)cc1=O` [Example 1.9], for which the half-inhibitory concentration (IC50) amounted to 11 nM. The result for `Cc1cc(CN2CC3CC(C2)C3O)ccc1C(=O)Cn1ccc(OCc2ccccc2)cc1=O` (stereo not drawn) [Example 1.18] reads 16 nM; that for `Cc1cc(CN2CCCC2)ccc1C(=O)Cn1ccc(OCc2ccc(F)cn2)cc1=O` [Example 2.1, 4-(5-Fluoro-pyridin-2-ylmethoxy)-1-[2-(2-methyl-4-pyrrolidin-1-ylmethyl-phenyl)-2-oxo-ethyl]-1H-pyridin-2-one], 67 nM.

For `CCN(CC)Cc1ccc(C(=O)Cn2ccc(OCc3ccc(Br)cn3)cc2=O)c(C)c1` [Example 4.20, 4-(5-Bromo-pyridin-2-ylmethoxy)-1-[2-(4-diethylaminomethyl-2-methyl-phenyl)-2-oxo-ethyl]-1H-pyridin-2-one], the half-inhibitory concentration (IC50) was 19 nM. Then `Cc1cc(CN2CCC[C@H]2CO)ccc1C(=O)Cn1ccc(OCc2ccccc2)cc1=O` [Example 1.17, (S)-4-Benzyloxy-1-{2-[4-(2-hydroxymethyl-pyrrolidin-1-ylmethyl)-2-methyl-phenyl]-2-oxo-ethyl}-1H-pyridin-2-one], with 26 nM; and `Cc1cc(CN2CCCCC2)ccc1C(=O)Cn1ncc(OCc2ccc(Cl)cn2)cc1=O` [Example 7.5], with 16 nM; and `Cc1cc(CN2CCN(C)CC2)ccc1C(=O)Cn1ncc(OCc2ccc(Cl)cn2)cc1=O` [Example 7.4], with 67 nM. Then `Cc1cc(CN2CC3CC(C2)C3O)ccc1C(=O)Cn1ccc(OCc2ccc(Cl)cn2)cc1=O` (stereo not drawn) [Example 3.16], with 19 nM; and `CCNCc1ccc(C(=O)Cn2ncc(OCc3ccccc3)cc2=O)c(C)c1` [Example 5.6, 5-Benzyloxy-2-[2-(4-ethylaminomethyl-2-methyl-phenyl)-2-oxo-ethyl]-2H-pyridazin-3-one], with 10 nM; and `COc1ccc(COc2cnn(CC(=O)c3ccc(C(C)N(C)C)cc3C)c(=O)c2)nc1` (stereo not drawn) [Example 10.1, 2-{2-[4-(1-Dimethylamino-ethyl)-2-methyl-phenyl]-2-oxo-ethyl}-5-(5-methoxy-pyridin-2-ylmethoxy)-2H-pyridazin-3-one], with 20 nM.

The molecule `Cc1cc(CN2CCC(O)CC2)ccc1C(=O)Cn1ncc(OCc2ccccc2)cc1=O` [Example 5.8] came in with an IC50 of 15 nM. For the molecule `Cc1cc(CN2CCCC[C@@H]2CO)ccc1C(=O)Cn1ccc(OCc2ccccc2)cc1=O` [Example 1.16], the IC50 came out at 29 nM. In turn, `Cc1cc(CN2CCCC[C@@H]2CO)ccc1C(=O)Cn1ccc(OCc2ccc(Cl)cn2)cc1=O` [Example 3.14] showed an IC50 of 37 nM. Then `COc1ccc(COc2ccn(CC(=O)c3ccc(CN4CCC(O)CC4)cc3C)c(=O)c2)nc1` [Example 11.1, 1-{2-[4-(4-Hydroxy-piperidin-1-ylmethyl)-2-methyl-phenyl]-2-oxo-ethyl}-4-(5-methoxy-pyridin-2-ylmethoxy)-1H-pyridin-2-one], with 53 nM; and `Cc1cc(CN2CCCCC2)ccc1C(=O)Cn1ccc(OCc2ccc(F)cn2)cc1=O` [Example 2.2], with 116 nM; and `CNCc1ccc(C(=O)Cn2ncc(OCc3ccc(Cl)cn3)cc2=O)c(C)c1` [Example 7.6, 5-(5-Chloro-pyridin-2-ylmethoxy)-2-[2-(2-methyl-4-methylaminomethyl-phenyl)-2-oxo-ethyl]-2H-pyridazin-3-one], with 28 nM. The result for `Cc1cc(CN2CCC[C@@H](O)C2)ccc1C(=O)Cn1ccc(OCc2ccc(Cl)cn2)cc1=O` [Example 3.13, (R)-4-(5-Chloro-pyridin-2-ylmethoxy)-1-{2-[4-(3-hydroxy-piperidin-1-ylmethyl)-2-methyl-pheny]-2-oxo-ethyl}-1H-pyridin-2-one] reads 34 nM; that for `CCN1CCN(Cc2ccc(C(=O)Cn3ccc(OCc4ccc(Br)cn4)cc3=O)c(C)c2)CC1` [Example 4.10], 53 nM.

Turning to `COc1ccc(COc2cnn(CC(=O)c3ccc(CN4CCCC4)cc3C)c(=O)c2)nc1` [Example 9.3, 5-(5-Methoxy-pyridin-2-ylmethoxy)-2-[2-(2-methyl-4-pyrrolidin-1-ylmethyl-phenyl)-2-oxo-ethyl]-2H-pyridazin-3-one], the 50% inhibitory concentration (IC50) was determined as 25 nM.

For the molecule `CNCc1ccc(C(=O)Cn2ccc(OCc3ccc(Cl)cn3)cc2=O)c(C)c1` [Example 3.10], the IC50 is 37 nM.

The molecule `Cc1cc(CN(C)C)ccc1C(=O)Cn1ccc(OCc2ccc(F)cn2)cc1=O` [Example 2.5] registered an IC50 of 70 nM. Then `Cc1cc(CN2CCCCC2)ccc1C(=O)Cn1ncc(OCc2ccc(F)cn2)cc1=O` [Example 6.2, 5-(5-Fluoro-pyridin-2-ylmethoxy)-2-[2-(2-methyl-4-piperidin-1-ylmethyl-phenyl)-2-oxo-ethyl]-2H-pyridazin-3-one], with 35 nM; and `CCNCc1ccc(C(=O)Cn2ccc(OCc3ccc(F)cn3)cc2=O)c(C)c1` [Example 2.6], with 134 nM.

Turning to `Cc1cc(CN2CC[C@H](O)C2)ccc1C(=O)Cn1ccc(OCc2ccc(F)cn2)cc1=O` [Example 2.4], the IC50 was 70 nM. Then `Cc1cc(CN2CCC(O)CC2)ccc1C(=O)Cn1ncc(OCc2ccc(F)cn2)cc1=O` [Example 6.4], with 58 nM; and `Cc1cc(CN2CC(O)C2)ccc1C(=O)Cn1ncc(OCc2ccc(Br)cn2)cc1=O` [Example 8.2, 5-(5-Bromo-pyridin-2-ylmethoxy)-2-{2-[4-(3-hydroxy-azetidin-1-ylmethyl)-2-methyl-phenyl]-2-oxo-ethyl}-2H-pyridazin-3-one], with 19 nM; and `Cc1cc(CN(C)C(C)C)ccc1C(=O)Cn1ccc(OCc2ccc(Br)cn2)cc1=O` [Example 4.17, 4-(5-Bromo-pyridin-2-ylmethoxy)-1-(2-{4-[(isopropyl-methyl-amino)-methyl]-2-methyl-phenyl}-2-oxo-ethyl)-1H-pyridin-2-one], with 18 nM. Then `CCNCc1ccc(C(=O)Cn2ccc(OCc3ccc(OC)cn3)cc2=O)c(C)c1` [Example 11.4], with 54 nM; and `Cc1cc(CN2CCCC[C@@H]2CO)ccc1C(=O)Cn1ncc(OCc2ccccc2)cc1=O` [Example 5.12, (R)-5-Benzyloxy-2-{2-[4-(2-hydroxymethyl-piperidin-1-ylmethyl)-2-methyl-phenyl]-2-oxo-ethyl}-2H-pyridazin-3-one], with 13 nM; and `CNCc1ccc(C(=O)Cn2ncc(OCc3ccc(Br)cn3)cc2=O)c(C)c1` [Example 8.10, 5-(5-Bromo-pyridin-2-ylmethoxy)-2-[2-(2-methyl-4-methylaminomethyl-phenyl)-2-oxo-ethyl]-2H-pyridazin-3-one], with 25 nM. Then `Cc1cc(CN2CC[C@@H](O)C2)ccc1C(=O)Cn1ncc(OCc2ccccc2)cc1=O` [Example 5.4, (R)-5-Benzyloxy-2-{2-[4-(3-hydroxy-pyrrolidin-1-ylmethyl)-2-methyl-phenyl]-2-oxo-ethyl}-2H-pyridazin-3-one], with 12 nM; and `Cc1cc(CN2CCCCC2)ccc1C(=O)Cn1ccc(OCc2ccc(Cl)cn2)cc1=O` [Example 3.6], with 26 nM. For the molecule `Cc1cc(CN2CCC(C)(O)C2)ccc1C(=O)Cn1ccc(OCc2ccccc2)cc1=O` (stereo not drawn) [Example 1.10, 4-Benzyloxy-1-{2-[4-(3-hydroxy-3-methyl-pyrrolidin-1-ylmethyl)-2-methyl-phenyl]-2-oxo-ethyl}-1H-pyridin-2-one], the IC50 was found to be 26 nM. Molecule `Cc1cc(CN2CCCC2)ccc1C(=O)Cn1ccc(OCc2ccc(Cl)cn2)cc1=O` [Example 3.8, 4-(5-Chloro-pyridin-2-ylmethoxy)-1-[2-(2-methyl-4-pyrrolidin-1-ylmethyl-phenyl)-2-oxo-ethyl]-1H-pyridin-2-one] yielded a 50% inhibitory concentration (IC50) of 26 nM. `Cc1cc(CN2CCC(O)CC2)ccc1C(=O)Cn1ccc(OCc2ccc(Br)cn2)cc1=O` [Example 4.2, 4-(5-Bromo-pyridin-2-ylmethoxy)-1-{2-[4-(4-hydroxy-piperidin-1-ylmethyl)-2-methyl-phenyl]-2-oxo-ethyl}-1H-pyridin-2-one] displayed an IC50 of 16 nM. Then `COc1ccc(COc2cnn(CC(=O)c3ccc(CN4CCC(O)CC4)cc3C)c(=O)c2)nc1` [Example 9.2, 2-{2-[4-(4-Hydroxy-piperidin-1-ylmethyl)-2-methyl-phenyl]-2-oxo-ethyl}-5-(5-methoxy-pyridin-2-ylmethoxy)-2H-pyridazin-3-one], with 34 nM; and `Cc1cc(CN2CCN(C)CC2)ccc1C(=O)Cn1ccc(OCc2ccc(Cl)cn2)cc1=O` [Example 3.5], with 84 nM; and `Cc1cc(CN2CCN(C)CC2)ccc1C(=O)Cn1ccc(OCc2ccccc2)cc1=O` [Example 1.5, 4-Benzyloxy-1-{2-[2-methyl-4-(4-methyl-piperazin-1-ylmethyl)-phenyl]-2-oxo-ethyl}-1H-pyridin-2-one], with 48 nM.

`Cc1cc(CN2CCC[C@@H](O)C2)ccc1C(=O)Cn1ncc(OCc2ccc(Br)cn2)cc1=O` [Example 8.6, (R)-5-(5-Bromo-pyridin-2-ylmethoxy)-2-{2-[4-(3-hydroxy-piperidin-1-ylmethyl)-2-methyl-phenyl]-2-oxo-ethyl}-2H-pyridazin-3-one] returned a half-inhibitory concentration (IC50) of 21 nM. Then `CCNCc1ccc(C(=O)Cn2ncc(OCc3ccc(OC)cn3)cc2=O)c(C)c1` [Example 9.5, 2-[2-(4-Ethylaminomethyl-2-methyl-phenyl)-2-oxo-ethyl]-5-(5-methoxy-pyridin-2-ylmethoxy)-2H-pyridazin-3-one], with 24 nM.

`CCN(C)Cc1ccc(C(=O)Cn2ccc(OCc3ccc(Br)cn3)cc2=O)c(C)c1` [Example 4.18, 4-(5-Bromo-pyridin-2-ylmethoxy)-1-(2-{4-[(ethyl-methyl-amino)-methyl]-2-methyl-phenyl}-2-oxo-ethyl)-1H-pyridin-2-one] had an IC50 of 19 nM.
